This assay concerns B6C3F1 mice, ip Sarcoma M5076, median survival T/C. Description: NCI In Vivo Anticancer Drug Screen. Data for tumor model Sarcoma M5076 (intraperitoneal) in B6C3F1 mice. As to conditions: endpoint: median survival time, schedule: Q04DX004 (ip), higher = longer survival. As for the experimental part:
The antitumor activity of compounds was measured in mice bearing transplantable tumors. Survival or tumor size were measured and the results are expressed as the measurement made in the treated group (T) divided by the measurement made in the vehicle treated control group (C). The tumor model used in this assay is Sarcoma M5076 (intraperitoneal) in B6C3F1 mice

Where [1] appears, read: dose: 50.0 mg/kg/injection, vehicle: Klucel (hydroxypropylcellulose) (HPC).
The mark [2] stands for this setting: dose: 100.0 mg/kg/injection, vehicle: Klucel (hydroxypropylcellulose) (HPC).
Where [3] appears, read: dose: 200.0 mg/kg/injection, vehicle: Klucel (hydroxypropylcellulose) (HPC).
The mark [4] stands for this setting: dose: 400.0 mg/kg/injection, vehicle: Klucel (hydroxypropylcellulose) (HPC).
Setting [5] is: dose: 50.0 mg/kg/injection, vehicle: saline with Tween-80.
Setting [6] is: dose: 200.0 mg/kg/injection, vehicle: saline with Tween-80.

This note sets out measurements from PubChem BioAssay AID292 (DTP/NCI, 2004).

Each structure is given as a SMILES string. Several values for one entry are separate records, joined by “and”; a condition that tells them apart may be missing. Identical values can stand only once. Inconclusive results and toxic doses are left out. Peptide text beside a SMILES is read from it. * marks the point of attachment. Trt = c1ccc(C(c2ccccc2)(c2ccccc2)*)cc1; Cbz = O=C(OCc1ccccc1)*; Bn = c1ccc(C*)cc1; βAla = NCCC(=O)O

In the case of `Cc1nc2ccccc2c(N)c1-c1cc(C)c2c(C)nc3ccccc3c2n1`, the T/C reads like this: (dose: 6.25 mg/kg/injection, vehicle: Klucel (hydroxypropylcellulose) (HPC)) 97 % of control; (dose: 12.5 mg/kg/injection, vehicle: Klucel (hydroxypropylcellulose) (HPC)) 91 % of control; (dose: 25.0 mg/kg/injection, vehicle: Klucel (hydroxypropylcellulose) (HPC)) 90 % of control and 94 % of control and 101 % of control; under setting [1], 92 % of control and 98 % of control; under setting [2], 96 % of control and 100 % of control; under setting [3], 99 % of control. Besides, the T/C under setting [4] is 106 % of control.

Consider `COc1oc(C2C/C(=C/C(C)=C/C(C)=C/C(C)=C/c3ccc([N+](=O)[O-])cc3)CO2)c(C)c(=O)c1C` (stereo not given), for which the T/C was 100 % of control (dose: 1.0 mg/kg/injection, vehicle: saline); 102 % of control and 104 % of control (dose: 2.0 mg/kg/injection, vehicle: saline); 102 % of control and 103 % of control (dose: 4.0 mg/kg/injection, vehicle: saline); 106 % of control and 115 % of control (dose: 8.0 mg/kg/injection, vehicle: saline).

Regarding `C1OC1CO[C@@H]1CO[C@H]2[C@@H]1OC[C@H]2OCC1CO1` (stereo not given in full), the T/C was 119 % of control (dose: 50.0 mg/kg/injection, vehicle: saline); 119 % of control (dose: 50.0 mg/kg/injection, vehicle: suspension in saline); 150 % of control (dose: 100.0 mg/kg/injection, vehicle: suspension in saline); 186 % of control (dose: 200.0 mg/kg/injection, vehicle: saline); 215 % of control (dose: 200.0 mg/kg/injection, vehicle: suspension in saline); 183 % of control (dose: 400.0 mg/kg/injection, vehicle: saline). Moreover, the T/C (dose: 400.0 mg/kg/injection, vehicle: suspension in saline) was 239 % of control.

As to `CC[C@@]1(O)C(=O)OCc2c1cc1n(c2=O)Cc2cc3ccccc3nc2-1`, the T/C reads like this: (dose: 0.37 mg/kg/injection, vehicle: saline with Tween-80) 107 % of control; (dose: 0.75 mg/kg/injection, vehicle: saline with Tween-80) 109 % of control; (dose: 1.5 mg/kg/injection, vehicle: saline with Tween-80) 118 % of control; (dose: 3.0 mg/kg/injection, vehicle: saline with Tween-80) 150 % of control; (dose: 6.0 mg/kg/injection, vehicle: saline with Tween-80) 153 % of control and 159 % of control.

Turning to `Nc1ccc(S(=O)(=O)Nc2cnc3c(Cl)cccc3n2)cc1`, the T/C is, setting by setting: (dose: 100.0 mg/kg/injection, vehicle: DMSO) 104 % of control; (dose: 200.0 mg/kg/injection, vehicle: DMSO) 102 % of control; (dose: 400.0 mg/kg/injection, vehicle: DMSO) 93 % of control.

Consider `O=C1c2cccc(NCCCNCCO)c2C(=O)c2cccc(NCCCNCCO)c21`, for which the T/C (dose: 12.5 mg/kg/injection, vehicle: acid diluted with saline) is 116 % of control; the T/C (dose: 25.0 mg/kg/injection, vehicle: acid diluted with saline) is 99 % of control; the T/C (dose: 50.0 mg/kg/injection, vehicle: acid diluted with saline) is 91 % of control.

In the case of `Oc1ccc(/C=N/N=C/c2ccc(O)c(O)c2)cc1O`, the T/C was 98 % of control under setting [5]; 95 % of control (dose: 100.0 mg/kg/injection, vehicle: saline with Tween-80); 95 % of control under setting [6]; 93 % of control (dose: 400.0 mg/kg/injection, vehicle: saline with Tween-80); 107 % of control (dose: 800.0 mg/kg/injection, vehicle: saline with Tween-80).

As for `CC1(O)C=CC(=O)C=C1`, the T/C was 104 % of control (dose: 12.5 mg/kg/injection, vehicle: water); 102 % of control and 113 % of control (dose: 25.0 mg/kg/injection, vehicle: water); 109 % of control and 114 % of control (dose: 50.0 mg/kg/injection, vehicle: water).

Take `COc1ccc(C(C)c2cc3c(cc2OC)OCO3)cc1` (stereo not given): the T/C by setting is: under setting [5], 115 % of control; under setting [6], 110 % of control.

On to `CC(=O)Oc1ccccc1O`, for which the T/C was 112 % of control (dose: 6.25 mg/kg/injection, vehicle: saline + Tween-80 + alcohol); 107 % of control (dose: 12.5 mg/kg/injection, vehicle: saline + Tween-80 + alcohol); 95 % of control (dose: 25.0 mg/kg/injection, vehicle: saline + Tween-80 + alcohol); 98 % of control (dose: 50.0 mg/kg/injection, vehicle: saline + Tween-80 + alcohol).

As to `Cc1ccc(/C=C/C(=O)/C=C/c2ccc(C)o2)o1`, the T/C reads like this: (dose: 50.0 mg/kg/injection, vehicle: other) 101 % of control; (dose: 100.0 mg/kg/injection, vehicle: other) 109 % of control; (dose: 200.0 mg/kg/injection, vehicle: other) 108 % of control; (dose: 400.0 mg/kg/injection, vehicle: other) 101 % of control; (dose: 800.0 mg/kg/injection, vehicle: other) 95 % of control.

Take `O=C1CN2CCN3CC(=O)NC(=O)[C@H]3[C@@H]2C(=O)N1`: the T/C is 93 % of control (dose: 31.0 mg/kg/injection, vehicle: saline with Tween-80); 94 % of control (dose: 62.0 mg/kg/injection, vehicle: saline with Tween-80); 93 % of control (dose: 125.0 mg/kg/injection, vehicle: saline with Tween-80); 100 % of control (dose: 250.0 mg/kg/injection, vehicle: saline with Tween-80); 98 % of control (dose: 500.0 mg/kg/injection, vehicle: saline with Tween-80).

For `COC1C(CO)OC(n2cnc3c(=S)nc(N)[nH]c32)C1O` (stereo not given), the T/C is, setting by setting: under setting [1], 93 % of control; under setting [2], 100 % of control; under setting [3], 105 % of control.

Consider `COC(=O)C(CSC(c1ccccc1)(c1ccccc1)c1ccccc1)NC(=O)C(CSCc1ccccc1)NC(=O)CCNC(=O)OCc1ccccc1` (stereo not given) ({Cbz-βAla}-Cys(Bn)-Cys(Trt)-OMe; configuration not given here), for which the T/C is, setting by setting: under setting [1], 102 % of control; under setting [2], 97 % of control; under setting [3], 106 % of control; under setting [4], 89 % of control; (dose: 800.0 mg/kg/injection, vehicle: Klucel (hydroxypropylcellulose) (HPC)) 107 % of control.

Consider `O=C1[C@@H]2C3C=CC([C@H]4C(=O)N(CO)C(=O)[C@@H]34)[C@@H]2C(=O)N1CO`, for which the T/C under setting [2] was 102 % of control, the T/C under setting [3] was 102 % of control and the T/C under setting [4] was 98 % of control.

For the molecule `CC[C@@]1(O)C(=O)OCc2c1cc1n(c2=O)Cc2cc3cc(O)ccc3nc2-1`, the T/C was 104 % of control (dose: 0.86 mg/kg/injection, vehicle: suspension in saline); 109 % of control (dose: 1.44 mg/kg/injection, vehicle: suspension in saline); 106 % of control (dose: 1.88 mg/kg/injection, vehicle: suspension in saline); 115 % of control (dose: 2.4 mg/kg/injection, vehicle: suspension in saline); 162 % of control (dose: 3.75 mg/kg/injection, vehicle: suspension in saline); 116 % of control (dose: 6.67 mg/kg/injection, vehicle: suspension in saline).
